Usually IC50 stands for the concentration needed to halve the response being measured.

Numbered stars: 1 amine (or outer) side, 2 acyl side, 3 side chain; on linkers, the order of the positions; unused ones are H or OH. Peptide text beside a SMILES is read from it. Suc = O=C(CCC(=O)[*:2])[*:1]

This assay concerns the target T1, ZAP-70 (Homo sapiens, UniProt P43403).
T1 construct: A nucleic acid encoding full-length human ZAP-70 (GenBank #L05148); hexa-histidine (N); made in house; host or cells: Sf9 insect cells (baculovirus)
T1 sequence (P43403 1-619): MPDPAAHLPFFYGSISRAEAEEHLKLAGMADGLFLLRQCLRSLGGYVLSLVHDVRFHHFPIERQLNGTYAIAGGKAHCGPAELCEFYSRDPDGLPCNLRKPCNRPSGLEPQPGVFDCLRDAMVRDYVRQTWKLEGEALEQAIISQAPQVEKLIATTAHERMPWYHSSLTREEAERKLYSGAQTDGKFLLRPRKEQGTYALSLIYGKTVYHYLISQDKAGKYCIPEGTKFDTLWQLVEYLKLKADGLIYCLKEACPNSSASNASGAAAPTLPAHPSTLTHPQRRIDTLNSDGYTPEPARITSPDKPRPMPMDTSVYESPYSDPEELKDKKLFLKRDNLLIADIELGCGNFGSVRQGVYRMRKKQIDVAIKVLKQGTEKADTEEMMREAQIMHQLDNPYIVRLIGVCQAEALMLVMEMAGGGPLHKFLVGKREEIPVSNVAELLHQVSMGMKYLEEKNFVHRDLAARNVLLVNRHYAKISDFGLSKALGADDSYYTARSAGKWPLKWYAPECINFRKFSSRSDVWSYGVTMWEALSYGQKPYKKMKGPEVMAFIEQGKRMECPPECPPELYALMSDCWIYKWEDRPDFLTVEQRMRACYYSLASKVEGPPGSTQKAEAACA
As to the kind of experiment: Phosphorylation of compounds of formula I by ZAP-70 measured in a competitive assay (Example C5). It is filed as biochemical. The following applies: non-biotinylated peptide competing with biotinylated SEQ ID NO:12; Lck-activated ZAP-70, PP2 added, 4 hours at RT; read-out: IC50, inhibition of the phosphorylation of SEQ ID NO:12 by ZAP-70. How it is done: 80 nM ZAP-70 are incubated with 80 nM Lck and 4 μM ATP in ZAP-70 kinase buffer for 1 hour at RT in a siliconized polypropylene tube. Then, the selective Lck inhibitor PP2 (see Example C2) is added (final concentration 1.2 μM) and incubated for further 10 min.
Ten μl of this solution is mixed with 10 μl biotinylated compound of e.g. SEQ ID NO:12 (1 μM) and 20 μl of the non-biotinylated peptides of compounds of formula I, e.g. by SEQ ID NO:21, SEQ ID NO:15, SEQ ID NO:16 or SEQ ID NO:17 (serial dilution 0.28 to 200 μM) and incubated for 4 hours at RT. Termination of the kinase reaction, detection phase and determination of fluorescence is performed as described in Example C1.

With “Ac-EEGAPDYENLQELN-OH [SEQ ID NO:21, acetyl-Glu-Glu-Gly-Ala-Pro-Asp-Tyr-Glu-Asn-Leu-Gln-Glu-Leu-Asn-OH]”, the IC50 was 0.6 to 21 µM. To “Ac-EEGAPDYENL-NH2 [SEQ ID NO:16, acetyl-Glu-Glu-Gly-Ala-Pro-Asp-Tyr-Glu-Asn-Leu-NH2]” belongs 0.6 to 21 µM; to `CC(C)C[C@H](NC(=O)[C@H](CC(N)=O)NC(=O)[C@H](CCC(=O)O)NC(=O)[C@H](Cc1ccc(O)cc1)NC(=O)[C@H](CC(=O)O)NCC(=O)O)C(N)=O` [SEQ ID NO:23, HOOC-CH2-Asp-Tyr-Glu-Asn-Leu-NH2], 0.6 to 21 µM; to “Ac-DYENL-NH2 [SEQ ID NO:17, acetyl-Asp-Tyr-Glu-Asn-Leu-NH2]”, 0.6 to 21 µM. To `CC(C)C[C@H](NC(=O)[C@H](CC(N)=O)NC(=O)[C@H](CCC(=O)O)NC(=O)[C@H](Cc1ccc(O)cc1)NC(=O)[C@H](CC(=O)O)NC(=O)CCC(=O)O)C(N)=O` [SEQ ID NO:22, HOOC-CH2-CH2-CO-Asp-Tyr-Glu-Asn-Leu-NH2] (Suc-DYENL-NH2) belongs 0.6 to 21 µM; to “Ac-DYENLQELN-OH [SEQ ID NO:15, acetyl-Asp-Tyr-Glu-Asn-Leu-Gln-Glu-Leu-Asn-OH]”, 0.6 to 21 µM.

Consider `CC(C)C[C@H](NC(=O)[C@H](Cc1ccccc1)NC(=O)[C@H](CCC(=O)O)NC(=O)[C@H](Cc1ccc(O)cc1)NC(=O)[C@H](CC(=O)O)NC(=O)CCC(=O)O)C(N)=O` [SEQ ID NO:24, HOOC-CH2-CH2-CO-Asp-Tyr-Glu-Phe-Leu-NH2] (Suc-DYEFL-NH2), for which the IC50 lay within 0.6 to 21 µM.

The values above are taken from patent US20100168031A1, “Lat peptides and their use in assays for identifying immunosuppressants” (priority 2000, published 2010).
